# Where a name gives a salt, the structure may show the parent alone. Read-outs that look alike come from different tables or passages of the source.
# Assays:
# Type in all cases: cell-based
# HTT = experiment: Gene panel canonical junction RT-qPCR assay: HTT; conditions: read-out: HTT (IC50, decrease in CJ mRNA levels)
# Protocol: (§1) Compounds described herein were used to modulate RNA transcript abundance in cells. The expression of a target mRNA was measured by detecting the formation of an exon-exon junction in the canonical transcript (CJ). A compound mediated exon-inclusion event was detected by observing an increase in formation of a new junction with an alternative exon (AJ). Real-time qPCR assays were used to detect these splicing switches and interrogate the potency of various compounds towards different target genes. A high-throughput real time quantitative PCR (RT-qPCR) assay was developed to measure these two isoforms of the mRNA (CJ and AJ) for an exemplary gene, HTT, together with a control housekeeping gene, GAPDH or GUSB or PPIA, used for normalization. Briefly, the A673 or K562 cell line was treated with various compounds described herein (e.g., compounds of Formula (I)). After treatment, the levels of the HTT mRNA targets were determined from each sample of cell lysate by cDNA synthesis followed by qPCR.
# (§2) The A673 cell line was cultured in DMEM with 10% FBS. Cells were diluted with full growth media and plated in a 96-well plate (15,000 cells in 100 ul media per well). The plate was incubated at 37° C. with 5% CO2 for 24 hours to allow cells to adhere. An 11-point 3-fold serial dilution of the compounds was made in DMSO then diluted in media in an intermediate plate. Compounds were transferred from the intermediate plate to the cell plate with the top dose at a final concentration of 10 uM in the well. Final DMSO concentration was kept at or below 0.25%. The cell plate was returned to the incubator at 37° C. with 5% CO2 for an additional 24 hours.
# (§3) The K562 cell line was cultured in IMDM with 10% FBS. For K562, cells were diluted with full growth media and plated in either a 96-well plate (50,000 cells in 50 uL media per well) or a 384-well plate (8,000-40,000 cells in 45 uL media per well). An 11-point 3-fold serial dilution of the compounds were made in DMSO then diluted in media in an intermediate plate. Compound was transferred from the intermediate plate to the cell plate with the top dose at a final concentration of 10 uM in the well. Final DMSO concentration was kept at or below 0.25%. Final volume was 100 uL for 96-well plate and 50 uL for 384-well plate. The cell plate was then placed in an incubator at 37° C. with 5% CO2 for 24 hours.
# (§4) The cells were then gently washed with 50 uL-100 uL cold PBS before proceeding to addition of lysis buffer. 30 uL-50 uL of room temperature lysis buffer with DNAse I (and optionally RNAsin) was added to each well. Cells were shaken/mixed thoroughly at room temperature for 5-10 minutes for lysis to take place and then 3 uL-5 uL of room temperature stop solution was added and wells were shaken/mixed again. After 2-5 minutes, the cell lysate plate was transferred to ice for RT-qPCR reaction setup. The lysates could also be frozen at −80° C. for later use.
# (§5) In some cases, a direct lysis buffer was used. An appropriate volume of 3×lysis buffer (10 mM Tris, 150 mM NaCl, 1.5%-2.5% Igepal and 0.1-1 U/uL RNAsin, pH 7.4) was directly added to either K562 or A673 cells in media and mixed by pipetting 3 times. The plates were then incubated at room temperature with shaking/rocking for 20-50 minutes to allow for lysis to take place. After this time, the cell lysate plate was transferred to ice to set up for the RT-qPCR reactions. The lysates could also be frozen at −80° C. for later use.
# (§6) To set up 10 uL RT-qPCR reactions, cell lysates were transferred to 384-well qPCR plates containing the master mix according to the table below. The plates were sealed, gently vortexed, and spun down before the run. The volumes were adjusted accordingly in some instances where the reaction was carried in 20 uL. The table below summarizes the components of the RT-qPCR reactions:
# (§7) The RT-qPCR reaction was performed using a QuantStudio (ThermoFisher) under the following fast cycling conditions. […]
# SMN2 = experiment: Gene panel canonical junction RT-qPCR assay: SMN2; conditions: read-out: SMN2 (IC50, decrease in CJ mRNA levels)
# Protocol: as §1, §2, §3, §4, §5, §6, §7
# Target C = experiment: Gene panel canonical junction RT-qPCR assay: Target C; conditions: read-out: Target C (IC50, decrease in CJ mRNA levels)
# Protocol: as §1, §2, §3, §4, §5, §6, §7
# HTT mRNA = experiment: RT-qPCR splicing assay monitoring HTT canonical (CJ) and alternative (AJ) junction mRNA in A673 or K562 cells; conditions: 24 hours compound treatment, top dose 10 uM
# Protocol: as §1
# • Cells-to-CT 1-step kit: ThermoFisher A25602, Cells-to-CT lysis reagent: ThermoFisher 4391851C, TaqMan™ Fast Virus 1-Step Master Mix: ThermoFisher 4444436 • GAPDH: VIC-PL, ThermoFisher 4326317E (Assay: Hs99999905_m1)—used for K562/suspension cell lines • GUSB: VIC-PL, ThermoFisher 4326320E (Assay: Hs99999908_m1)—used for K562/suspension cell lines • PPIA: VIC-PL, ThermoFisher 4326316E (Assay: Hs99999904_m1)—used for A673/adherent cell lines
# as §2, §3, §4
# as §5, with “use. […]” for “use.”
# [1] = decrease in CJ mRNA, read-out: HTT CJ AC50
# [2] = increase in AJ mRNA, read-out: HTT AJ AC50
Compound,IC50 (HTT) [nM],IC50 (SMN2) [nM],IC50 (Target C) [nM],AC50 (HTT mRNA; [1]) [nM],AC50 (HTT mRNA; [2]) [nM]
"COc1nc(-c2ccc(N(C)[C@@H]3C[C@H]4CC[C@@H](C3)N4)nn2)ccc1-c1cn[nH]c1 [Compound 133, (1R,3S,5S)—N-[6-[6-methoxy-5-(1H-pyrazol-4-yl)pyridin-2-yl]pyridazin-3-yl]-N-methyl-8-azabicyclo[3.2.1]octan-3-amine]",< 100,< 100,< 100,< 100,100 to 1000
"CN(c1ccc(-c2ccc(-n3cccn3)c(=O)[nH]2)nn1)[C@@H]1C[C@H]2CC[C@@H](C1)N2 [Compound 130, 6-[6-[(1R,3S,5S)-8-azabicyclo[3.2.1]octan-3-yl(methyl)amino]pyridazin-3-yl]-3-(pyrazol-1-yl)-1H-pyridin-2-one]",100 to 1000,1000 to 10000,< 100,100 to 1000,1000 to 10000
Cc1nc(-c2ccc(N(C)[C@@H]3C[C@H]4CC[C@@H](C3)N4)nn2)ccc1-c1cn[nH]c1 [Compound 171],1000 to 10000,100 to 1000,1000 to 10000,1000 to 10000,1000 to 10000
CN(c1ccc(-c2ccc(-c3cn[nH]c3)cn2)nn1)[C@@H]1C[C@H]2CC[C@@H](C1)N2 [Compound 217],100 to 1000,> 10000,1000 to 10000,100 to 1000,100 to 1000
COc1nc(-c2ccc(N(C)[C@@H]3C[C@H]4CC[C@@H](C3)N4)nn2)ncc1-c1cn[nH]c1 [Compound 207],1000 to 10000,1000 to 10000,1000 to 10000,1000 to 10000,1000 to 10000
"COc1nc(-c2ccc(N(C)C3C[C@H]4CC[C@@H](C3)N4)nn2)ccc1-c1cnn(C)n1 (stereo partly drawn) [Compound 269, N-{6-[6-methoxy-5-(2-methyl-1,2,3-triazol-4-yl)pyridin-2-yl]pyridazin-3-yl}-N-methyl-8-azabicyclo[3.2.1]octan-3-amine]",< 100,,100 to 1000,100 to 1000,100 to 1000
"COc1nc(-c2ccc(N(C)C3CC(C)(C)NC(C)(C)C3)nn2)ccc1-n1cccn1 [Compound 272, 6-[6-methoxy-5-(pyrazol-1-yl)pyridin-2-yl]-N-methyl-N-(2,2,6,6-tetramethylpiperidin-4-yl) pyridazin-3-amine]",1000 to 10000,,1000 to 10000,100 to 1000,100 to 1000
"COc1nc(-c2ccc(N(C)[C@@H]3C[C@H]4CC[C@@H](C3)N4)nn2)ccc1-n1cccn1 [Compound 134, (1R,3S,5S)—N-[6-[6-methoxy-5-(pyrazol-1-yl)pyridin-2-yl]pyridazin-3-yl]-N-methyl-8-azabicyclo[3.2.1]octan-3-amine]",100 to 1000,100 to 1000,> 10000,100 to 1000,100 to 1000
"COc1nc(-c2ccc(N(C)C3CC(C)(C)NC(C)(C)C3)nn2)ccc1-c1cnn(C)c1 [Compound 247, 6-[6-methoxy-5-(1-methylpyrazol-4-yl)pyridin-2-yl]-N-methyl-N-(2,2,6,6-tetramethylpiperidin-4-yl)pyridazin-3-amine]",< 100,,100 to 1000,100 to 1000,100 to 1000
"CCOc1nc(-c2ccc(N(C)[C@@H]3C[C@H]4CC[C@@H](C3)N4)nn2)ccc1-c1cn[nH]c1 [Compound 261, (1R,3R,5S)—N-{6-[6-ethoxy-5-(1H-pyrazol-4-yl)pyridin-2-yl]pyridazin-3-yl}-N-methyl-8-azabicyclo[3.2.1]octan-3-amine]",< 100,,< 100,< 100,< 100
"CC(C)Oc1nc(-c2ccc(N(C)[C@@H]3C[C@H]4CC[C@@H](C3)N4)nn2)ccc1-c1cn[nH]c1 [Compound 284, (1R,3R,5S)—N-{6-[6-isopropoxy-5-(1H-pyrazol-4-yl)pyridin-2-yl]pyridazin-3-yl}-N-methyl-8-azabicyclo[3.2.1]octan-3-amine]",< 100,,100 to 1000,< 100,1000 to 10000
"COc1nc(-c2ccc(N(C)[C@@H]3CCN[C@H](C)C3)nn2)ccc1-c1cn[nH]c1 [Compound 136, 6-[6-methoxy-5-(1H-pyrazol-4-yl)pyridin-2-yl]-N-methyl-N-[(2R,4R)-2-methylpiperidin-4-yl]pyridazin-3-amine]",1000 to 10000,100 to 1000,,1000 to 10000,1000 to 10000
"CN(c1ccc(-c2ccc(-c3cn[nH]c3)c(F)n2)nn1)[C@@H]1C[C@H]2CC[C@@H](C1)N2 [Compound 249, (1R,3R,5S)—N-{6-[6-fluoro-5-(1H-pyrazol-4-yl)pyridin-2-yl]pyridazin-3-yl}-N-methyl-8-azabicyclo[3.2.1]octan-3-amine hydrochloride]",< 100,,< 100,< 100,< 100
"COc1nc(-c2ccc(NC3CCNCC3)nn2)ccc1-c1cnn(C)n1 [Compound 270, 6-[6-methoxy-5-(2-methyl-1,2,3-triazol-4-yl)pyridin-2-yl]-N-(piperidin-4-yl)pyridazin-3-amine]",1000 to 10000,,1000 to 10000,> 10000,1000 to 10000
"COc1nc(-c2ccc(NC3CCNCC3)nn2)ccc1-n1cccn1 [Compound 288, 6-[6-methoxy-5-(pyrazol-1-yl)pyridin-2-yl]-N-(piperidin-4-yl) pyridazin-3-amine]",> 10000,,> 10000,> 10000,> 10000
"COc1nc(-c2ccc(N(C)C3CC(C)(C)NC(C)(C)C3)nn2)ccc1-c1cn[nH]c1 [Compound 246, 6-[6-methoxy-5-(1H-pyrazol-4-yl)pyridin-2-yl]-N-methyl-N-(2,2,6,6-tetramethylpiperidin-4-yl)pyridazin-3-amine]",< 100,,100 to 1000,< 100,100 to 1000
COc1cc(-c2ccc(N(C)[C@@H]3C[C@H]4CC[C@@H](C3)N4)nn2)ccc1-c1cn[nH]c1 [Compound 208],100 to 1000,< 100,100 to 1000,100 to 1000,100 to 1000

# Reference: US20230365526A1, “PYRIDAZINE DERIVATIVES FOR MODULATING NUCLEIC ACID SPLICING” (REMIX THERAPEUTICS INC., priority 2020, published 2023)
